One molecule from patent US7101719B2, “Support and method for cell based assays” (GE Healthcare Limited, priority 2000, dated 2006) can be followed below.

What all share (format): cell-based
The test system of experiment [1] is CHO cells. As to the kind of experiment: Uptake of radiolabelled methionine into CHO cells cultured on CYTODEX/YOx Microcarriers (Example 2). Particulars: cycloheximide 10 μM final concentration; CCD imaging; FIG. 1. The procedure: CYTODEX™ and CYTODEX™/YOx Microcarrier beads were dispensed into sterile universal containers. Beads were collected by centrifugation at 100 rpm for one minute. Supernatants were removed and replaced with complete Ham's F12 nutrient mix containing 10% (v\v) FCS. Beads were incubated with rolling at 37° C. for 30 minutes. Beads were harvested by centrifugation at 100 rpm for 1 minute. Spent medium was removed and replaced with 10^7 cells in 500 μl or less. Beads plus cells were incubated at 37° C. for 20 minutes to permit cell attachment to beads. Fresh Ham's F12 medium was added to a final volume of 4 ml containing 5 mg/ml beads for [^35S] and 10 mg/ml for [^14C] or [^3H]. Beads were left to roll overnight at 37° C. Following overnight incubation, beads/cells were harvested by centrifugation at 100 rpm for 1 minute. Supernatant containing unattached cells was removed. Microcarrier beads were washed with PBS (×1) and resuspended in methionine deficient DMEM supplemented with radiolabelled methionine. Cultures were returned to 37° C. with rolling. [^3H]Methionine and [^14C] or [^35S]methionine were included at final concentrations of 8 μCi/ml and 4 μCi/ml respectively. […]

Experiment [2] has as its system CHO cells. Briefly: Parallel assay of incorporation of [35S]methionine into CHO cells on CYTODEX/YOx Microcarriers (Example 3). The settings on record: cycloheximide 10 μM, without inhibitor 1700 IODs, 'no cell' controls 650 IODs, FIG. 4. On the procedure: (§1) 40 mg of YOx-loaded CYTODEX™ Microcarrier beads were dispensed into suitable sterile containers and allowed to settle. The supernatant was removed from each microcarrier pellet and the beads resuspended in 5 ml of either complete Ham's F12 nutrient mix (Sigma N-4888) or DMEM (Sigma D-6546), both containing 10% FCS, 2 mM L-glutamine and 50 μg/ml streptamycin/50 IU/ml penicillin. The microcarriers were incubated at 37° C. for thirty minutes without rolling.
(§2) 10×10^6 CHO or HeLa cells in 5 ml complete medium were added to separate microcarrier preparations and the cultures incubated at 37° C. for thirty minutes without rolling. After the initial incubation cultures were incubated overnight at 37° C. with rolling. Following the overnight incubation, unattached cells were removed and the beads resuspended in 10 ml complete culture medium. Microcarriers/cells were maintained in culture until the cell density had reached a sufficient level. Culture medium was replaced every two days.
(§3) Cycloheximide was prepared as a 1 mM stock in phosphate buffered saline and added to the cultures at a final concentration of 10 μM. […]
(§4) Each microcarrier preparation was allowed to settle and the growth medium removed. […] Plates were read on the LEADseeker™ Imaging System with a 5 minute exposure time to detect cellular associated methionine.

The subject of another experiment is HeLa cells. As to the kind of experiment: Parallel assay of incorporation of [35S]methionine into HeLa cells on CYTODEX/YOx Microcarriers (Example 3). The settings on record: cycloheximide 10 μM, without inhibitor 900 IODs, 'no cell' controls 650 IODs, FIG. 4. The procedure:
as §1, §2, §3, §4

As to `C[C@@H]1C[C@@H]([C@H](O)CC2CC(=O)NC(=O)C2)C(=O)[C@@H](C)C1` [cycloheximide], the “uptake of [35S]methionine into CHO cells” value in the experiment with CHO cells [1] is listed as “inhibited”. In addition, the “signal of [35S]methionine incorporation in the presence of protein synthesis inhibitor” value in the experiment on CHO cells [2] stood at 650 IODs; in the experiment on HeLa cells, 600 IODs.
